Measurements as given in patent US20090143285A1, “TARGET PROTEIN AND TARGET GENE FOR DRUG DISCOVERY AND SCREENING METHOD” (REVERSE PROTEOMICS RESEARCH INSTITUTE CO., LTD., priority 2005, published 2009).

The compounds below were run on FLJXXXXX-derived proteins (assay: SEC/MS spin column interaction analysis of FLJXXXXX-derived proteins and various compounds (Tables 30-1 to 30-4)). Conditions: not given.
Format: binding, human

Row | Compound | FLJ No of the derived protein with which the compound was judged to exhibit a concentration-dependent interaction
1 | CCCSc1ccc2nc(NC(=O)OC)[nH]c2c1 [albendazole] | FLJ35353

Same assay, conditions: SEC spin column filtrate, spectral intensity increased with doses of compound and protein

Row | Compound | FLJ No of the derived protein with which the compound was judged to exhibit a concentration-dependent interaction
2 | CN1CCN(CC/C=C2/c3ccccc3Sc3ccc(S(=O)(=O)N(C)C)cc32)CC1 [thiothixene (cis), thiothixene] | FLJ37909
3 | CCOC(=O)Oc1c(OC)cc(C(=O)O[C@@H]2C[C@@H]3CN4CCc5c([nH]c6cc(OC)ccc56)[C@H]4C[C@@H]3[C@H](C(=O)OC)[C@H]2OC)cc1OC [syrosingopine] | FLJ35353
4 | C[C@H]1CC[C@]2(NC1)O[C@H]1C[C@H]3[C@@H]4CC[C@H]5C[C@@H](O)CC[C@]5(C)[C@H]4CC[C@]3(C)[C@H]1[C@@H]2C [tomatidine] | FLJ35353
5 | eburnamonine | FLJ11211
6 | CC[C@H]1CN2CCc3cc(OC)c(OC)cc3[C@@H]2C[C@@H]1C[C@H]1NCCc2cc(OC)c(OC)cc21 [emetine] | FLJ37909
7 | CC1CCc2cc(F)cc3c(=O)c(C(=O)O)cn1c23 (stereo not shown) [flumequine] | FLJ38531
8 | CN1CCCCC1CCN1c2ccccc2Sc2ccc([S+](C)[O-])cc21 (stereo not shown) [mesoridazine] | FLJ11211
9 | CC(=O)O[C@H]1C(=O)[C@@]2(C)[C@H]([C@H](OC(=O)c3ccccc3)[C@]3(O)C[C@H](OC(=O)[C@H](O)[C@@H](NC(=O)c4ccccc4)c4ccccc4)C(C)=C1C3(C)C)[C@]1(OC(C)=O)CO[C@@H]1C[C@@H]2O [paclitaxel] | FLJ39553
10 | CC#C[C@]1(O)CC[C@H]2[C@@H]3CCC4=CC(=O)CCC4=C3[C@@H](c3ccc(N(C)C)cc3)C[C@@]21C [mifepristone] | FLJ22317
11 | Cc1cccc(C)c1NC(=O)CN1CCN(CCCC(c2ccc(F)cc2)c2ccc(F)cc2)CC1 [lidoflazine] | FLJ37909
12 | CNCCCC1c2ccccc2C=Cc2ccccc21 [protriptyline.] | FLJ20972
13 | O=c1cc(-c2ccc(O)cc2)oc2cc(O)cc(O)c12 [apigenin] | FLJ39553
14 | CC1CCCC(C)N1 (stereo not drawn) [nanofin (cis), nanofin] | FLJ42665
15 | Cc1c2ccncc2c(C)c2c1[nH]c1ccccc12 [ellipticine] | FLJ35353
16 | CN(C(=O)CN(CCO)CC(=O)N(C)C(C)(C)Cc1ccccc1)C(C)(C)Cc1ccccc1 [oxethazaine] | FLJ37909
17 | COc1cc(NS(=O)(=O)c2ccc(N)cc2)nc(OC)n1 [sulfadimethoxine] | FLJ39553
18 | CCCCC[C@](C)(O)/C=C/[C@@H]1[C@@H](C/C=C\CCCC(=O)O)[C@@H](O)C[C@H]1O [carboprost] | FLJ39553
19 | C[C@@H]1C[C@H]2[C@@H]3C[C@H](F)C4=CC(=O)C=C[C@]4(C)[C@H]3[C@@H](O)C[C@]2(C)[C@@]1(O)C(=O)CO [paramethasone] | FLJ39553
20 | COC(=O)Nc1nc2ccc(Sc3ccccc3)cc2[nH]1 [fenbendazole] | FLJ37909
21 | COC(=O)[C@H]1[C@H]2C[C@@H]3c4[nH]c5cc(OC)ccc5c4CCN3C[C@H]2C[C@@H](OC(=O)c2cc(OC)c(OC)c(OC)c2)[C@@H]1OC [reserpine] | FLJ37909
22 | Cc1c(N(C)CS(=O)(=O)[O-])c(=O)n(-c2ccccc2)n1C.[Na+] [dipyrone] | FLJ35353
23 | Fc1ccc(C(c2ccc(F)cc2)N2CCN(C/C=C/c3ccccc3)CC2)cc1 [flunarizine] | FLJ37909
24 | CC(N/C(=N\C#N)Nc1ccncc1)C(C)(C)C (stereo not shown) [pinacidil] | FLJ35353
25 | COC(=O)[C@H]1[C@H]2C[C@@H]3c4[nH]c5cc(OC)ccc5c4CCN3C[C@H]2C[C@@H](OC(=O)/C=C/c2cc(OC)c(OC)c(OC)c2)[C@@H]1OC [rescinnamine] | FLJ37909
26 | Cc1cccc(Nc2ccccc2C(=O)O)c1C [mefenamic acid] | FLJ35353

Row | Compound | FLJ No of the derived protein with which the compound was judged to exhibit a concentration-dependent interaction
27 | CC(CN(C)C)CN1c2ccccc2Sc2ccccc21 (stereo not shown) [alimemazine] | FLJ37909
28 | C[N+]1(C)CCC(=C(c2ccccc2)c2ccccc2)CC1 [diphemanil] | FLJ36526
29 | COc1c(O)cc2c(c1O)[C@@H]1O[C@H](CO)[C@@H](O)[C@H](O)[C@H]1OC2=O [bergenin] | FLJ39553
30 | CN(C)CCCN1c2ccccc2Sc2ccc(Cl)cc21 [chlorpromazine] | FLJ35353
31 | Cc1cnc(C(=O)NCCc2ccc(S(=O)(=O)NC(=O)NC3CCCCC3)cc2)cn1 [glipizide] | FLJ35353
32 | NCc1ccc(S(N)(=O)=O)cc1 [mafenide] | FLJ21841
33 | CN1CCCC(CC2c3ccccc3Sc3ccccc32)C1 (stereo not shown) [methixene] | FLJ35353
34 | O=C1CN=C(c2ccccc2)c2cc(Cl)ccc2N1 [nordiazepam] | FLJ35353
35 | CC(C)[C@@]1(NC(=O)[C@@H]2C[C@@H]3c4cccc5[nH]cc(c45)C[C@H]3N(C)C2)O[C@@]2(O)[C@@H]3CCCN3C(=O)[C@H](Cc3ccccc3)N2C1=O [dihydroergocristine] | FLJ37909
36 | CN1C[C@H](C(=O)N[C@]2(C)O[C@@]3(O)[C@@H]4CCCN4C(=O)[C@H](Cc4ccccc4)N3C2=O)C[C@@H]2c3cccc4[nH]cc(c34)C[C@H]21 [dihydroergotamine] | FLJ37909
37 | CC(=O)[C@@]1(O)CC[C@H]2[C@@H]3CCC4=CC(=O)CC[C@]4(C)[C@H]3CC[C@@]21C [hydroxyprogesterone] | FLJ37909
38 | CC(C)/N=c1\cc2n(-c3ccc(Cl)cc3)c3ccccc3nc-2cc1Nc1ccc(Cl)cc1 [clofazimine] | FLJ35353
39 | Cc1cc2c(cc1S(N)(=O)=O)S(=O)(=O)CCC2 [meticrane] | FLJ39553
40 | [H]/N=C(\N/C(=N/[H])NCCCCCCNC(=N)NC(=N)Nc1ccc(Cl)cc1)Nc1ccc(Cl)cc1 [chlorhexidine] | FLJ37909
41 | CCn1cc(C(=O)O)c(=O)c2cc3c(cc21)OCO3 [oxolinic acid] | FLJ37909
42 | Cl.Cl.OCCN1CCN(CCC=C2c3ccccc3Sc3ccc(C(F)(F)F)cc32)CC1 (mixture of isomers) [flupentixol] | FLJ37909
43 | CN(C)[C@@H]1C(O)=C(C(N)=O)C(=O)[C@@]2(O)C(O)=C3C(=O)c4c(O)ccc(Cl)c4[C@@H](O)[C@H]3C[C@@H]12 [demeclocycline] | FLJ39553
44 | NCC[C@H](O)C(=O)N[C@@H]1C[C@H](N)[C@@H](O[C@H]2O[C@H](CN)[C@@H](O)[C@H](O)[C@H]2O)[C@H](O)[C@H]1O[C@H]1O[C@H](CO)[C@@H](O)[C@H](N)[C@H]1O [amikacin] | FLJ37909
45 | CCCCc1oc2ccccc2c1C(=O)c1cc(I)c(OCCN(CC)CC)c(I)c1 [amiodarone] | FLJ37909
46 | CC(=O)CCCCn1c(=O)c2c(ncn2C)n(C)c1=O [pentoxifylline] | FLJ35353
47 | c1ccc2c(c1)CCCc1cc(NCCN3CCOCC3)nnc1-2 [SR-95639A] | FLJ36526
48 | O=c1[nH]c2ccccc2n1CCCN1CCC(n2c(=O)[nH]c3cc(Cl)ccc32)CC1 [domperidone] | FLJ20571
49 | CCN(CC)CCOc1ccc(C(=C(Cl)c2ccccc2)c2ccccc2)cc1 [clomiphene] | FLJ37909
50 | CN1C[C@H](CNC(=O)OCc2ccccc2)C[C@@H]2c3cccc4c3c(cn4C)C[C@H]21 [metergoline] | FLJ37909
51 | CC(=O)[C@H]1CC[C@H]2[C@@H]3C=CC4=CC(=O)CC[C@@]4(C)[C@@H]3CC[C@]12C [dydrogesterone] | FLJ35353

Same assay, conditions: SEC spin column filtrate, spectral intensity increased with doses of compound and protein; listed as Thiothixene (cis)

Row | Compound | FLJ No of the derived protein with which the compound was judged to exhibit a concentration-dependent interaction
52 | CN1CCN(CC/C=C2/c3ccccc3Sc3ccc(S(=O)(=O)N(C)C)cc32)CC1 [thiothixene (cis), thiothixene] | FLJ35353
